Data published in PubChem BioAssay (NCI).
“And” between values parts separate entries of the source, which are not always exact repeats. Equal entries are not always repeated.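 A five-concentration, 48-hour dose response in 96-well plates underlies each endpoint, interpolated linearly between surrounding concentrations. Here, GI50 denotes the concentration required for 50% inhibition of growth. TGI: total growth inhibition.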

Each molecule was assayed on SK-MEL-5 melanoma (assay: NCI-60 cell line screen, 48 h).

Structure (SMILES) | GI50 | TGI
COc1ccc(-c2nsc3c2NC(=O)CC3c2cccc(OC)c2)cc1 (configuration not stated) | 445 nM | 17.5 µM
C[C@@]12CCC[C@@](C)(C(=O)O)C1CC[C@]13CC(=O)[C@](CO)(C1)[C@@H](O)CC32 (some centres not stated) | > 100000 nM | > 100 µM
O=[N+]([O-])c1ccc(CI)cc1 | 1990 nM | 4.41 µM
CN(C)C/C=C/C(=O)Nc1cc2c(Nc3ccc(F)c(Cl)c3)ncnc2cc1O[C@H]1CCOC1 | 1310 nM and 2110 nM | 2.75 µM and > 5.59 µM
Cn1cnnc1Sc1c([N+](=O)[O-])ncn1C |  | > 100 µM
C=CCC1(CN(C)C)CC/C(=C\c2ccc(Cl)cc2)C1=O (configuration not stated) |  | > 79.1 µM
COc1cc(/C=C/C(=O)c2cccc(-n3cc(-c4ccc(Cl)cc4)[nH]c3=O)c2)ccc1O | 1880 nM | 5.22 µM
CC(=O)N1CCC(=O)/C(=C/c2ccccc2)C1 |  | > 100 µM
C[Si](C)(C)/C(Br)=C\CCN1C(=O)CCC1=O |  | > 100 µM
CC1(Br)Cc2ccccc2C1=O (configuration not stated) | 2750 nM | 12.5 µM
C[C@]12CCC(=O)C=C1CC[C@@H]1C2CC[C@]2(C)Nc3[nH]ncc3CC12 (some centres not stated) |  | > 100 µM
CCOC(=O)/C=C/c1ccc(C#Cc2ccccc2)cc1 | 68500 nM | > 100 µM
O=[P@@]1(c2ccccc2)O[C@H](COCc2ccccc2)[C@@H](OCc2ccccc2)[C@H](OCc2ccccc2)[C@H]1NCc1ccccc1 | 2590 nM | 6.79 µM
O=C1c2cc3c(cc2-c2c1c1cc(Cl)c(Cl)cc1c(=O)n2C[C@H](O)CO)OCO3 | < 10 nM | 0.0134 µM
COc1ccc(/C(=C\C=C(C#N)C#N)Sc2nc3ccccc3s2)cc1 | 7870 nM | 16.5 µM
CC(C)(C)[Si](C)(C)OC1C(=O)C[C@H]2CCCC[C@@H]12 (some centres not stated) |  | > 100 µM

Structure (SMILES) | GI50 | TGI
CCN(CC)CCSc1c2ccccc2nc2c(OC)ccc(OC)c12 |  | 16.5 µM
COc1cc(/C=C\c2cc(OC)c(OC)c(OC)c2)cc(N/C=C\C(=O)c2cc(OC)c(OC)c(OC)c2)c1OC | 1690 nM | 4.48 µM
Clc1nc(Cl)nc(Nc2cccc3ccccc23)n1 | 67300 nM | > 100 µM
CCOC(=O)c1ccc(N=Nc2cc(C(=O)OCC)ccc2O)cc1 |  | > 100 µM
[N-]=[N+]=N/C1=C/CCCCC(=O)C1 |  | > 100 µM
CN(C)c1ncnc2c1ncn2CCn1cnc2c(N(C)C)ncnc21 |  | > 100 µM
Cc1cc(N(CCCNc2ccnc3cc(Cl)ccc23)Cc2ccc3c(c2)OCO3)nc(N2CCOCC2)n1 | 169 nM | 0.309 µM
O=C1CCC(=O)c2c1c(O)c1ccncc1c2O |  | 23.5 µM
C=CCN1CCC23c4c5ccc(O)c4OC2C(=NN=C2CCC4(O)C6Cc7ccc(O)c8c7C4(CCN6CC=C)C2O8)CCC3(O)C1C5 (configuration not stated) |  | 36.3 µM
CN1CC[C@@H](c2c(O)cc(O)c3c(=O)cc(-c4ccc(C(F)(F)F)cc4Cl)oc23)[C@@H]1CO | 15400 nM | 30.7 µM
CN(C)CCNC(=O)c1cccc2c(Nc3ccc(S(=O)(=O)N=C(N)N)cc3)c3ccccc3nc12 |  | 27.9 µM
COC(=O)C1=C(C(=O)OC)C2=S(SC3=C2CCCC3)S1 (configuration not stated) |  | 4.71 µM
COC(=O)c1ccc(-c2c(C#N)[n+](=O)c3cc(Cl)c(Cl)cc3n2[O-])cc1 | 22000 nM | 47.7 µM
Cn1cc(-c2csc(-c3c[nH]c4ccc(Br)cc34)n2)c2cnccc21 | 1880 nM | 4.25 µM
COc1ccc(Cn2c(N)c(S(=O)(=O)c3ccc(Cl)cc3)c3nc(C#N)c(C#N)nc32)cc1 | 49400 nM | > 50 µM

The molecules below were run on HT29 colon (assay: NCI-60 cell line screen, 48 h).

Structure (SMILES) | GI50 | TGI
Cn1c(Nc2ccc(C(F)(F)F)cc2)nc2cc(Oc3ccnc(-c4ncc(C(F)(F)F)[nH]4)c3)ccc21 | 124 nM | 3.56 µM
COc1ccc(-c2nsc3c2NC(=O)CC3c2cccc(OC)c2)cc1 (configuration not stated) | 427 nM | > 100 µM
C[C@@]12CCC[C@@](C)(C(=O)O)C1CC[C@]13CC(=O)[C@](CO)(C1)[C@@H](O)CC32 (some centres not stated) | > 100000 nM | > 100 µM
CN(C)C/C=C/C(=O)Nc1cc2c(Nc3ccc(F)c(Cl)c3)ncnc2cc1O[C@H]1CCOC1 | 815 nM and 756 nM | 3.49 µM and > 10 µM
Cn1cnnc1Sc1c([N+](=O)[O-])ncn1C |  | > 100 µM
C=CCC1(CN(C)C)CC/C(=C\c2ccc(Cl)cc2)C1=O (configuration not stated) |  | 60.1 µM
COc1cc(/C=C/C(=O)c2cccc(-n3cc(-c4ccc(Cl)cc4)[nH]c3=O)c2)ccc1O | 2970 nM | > 100 µM
CC(=O)N1CCC(=O)/C(=C/c2ccccc2)C1 |  | 38.8 µM
C[Si](C)(C)/C(Br)=C\CCN1C(=O)CCC1=O |  | > 100 µM
CC1(Br)Cc2ccccc2C1=O (configuration not stated) |  | 15.4 µM
C[C@]12CCC(=O)C=C1CC[C@@H]1C2CC[C@]2(C)Nc3[nH]ncc3CC12 (some centres not stated) |  | > 100 µM
CCOC(=O)/C=C/c1ccc(C#Cc2ccccc2)cc1 | > 100000 nM | > 100 µM
O=[P@@]1(c2ccccc2)O[C@H](COCc2ccccc2)[C@@H](OCc2ccccc2)[C@H](OCc2ccccc2)[C@H]1NCc1ccccc1 | 3210 nM | > 100 µM
COc1ccc(/C(=C\C=C(C#N)C#N)Sc2nc3ccccc3s2)cc1 | 1540 nM | 6.06 µM
CC(C)(C)[Si](C)(C)OC1C(=O)C[C@H]2CCCC[C@@H]12 (some centres not stated) |  | > 100 µM
CCN(CC)CCSc1c2ccccc2nc2c(OC)ccc(OC)c12 |  | 23.1 µM
COc1cc(/C=C\c2cc(OC)c(OC)c(OC)c2)cc(N/C=C\C(=O)c2cc(OC)c(OC)c(OC)c2)c1OC | 3210 nM | 14.8 µM
Clc1nc(Cl)nc(Nc2cccc3ccccc23)n1 | > 100000 nM | > 100 µM
CCOC(=O)c1ccc(N=Nc2cc(C(=O)OCC)ccc2O)cc1 |  | > 100 µM
[N-]=[N+]=N/C1=C/CCCCC(=O)C1 |  | > 100 µM
CN(C)c1ncnc2c1ncn2CCn1cnc2c(N(C)C)ncnc21 |  | > 100 µM
Cc1cc(N(CCCNc2ccnc3cc(Cl)ccc23)Cc2ccc3c(c2)OCO3)nc(N2CCOCC2)n1 | 247 nM | 0.695 µM
CCOC(=O)C1SC(=Nc2ccccc2)N=C1C (configuration not stated) |  | > 100 µM
O=C1CCC(=O)c2c1c(O)c1ccncc1c2O |  | 21.3 µM
C=CCN1CCC23c4c5ccc(O)c4OC2C(=NN=C2CCC4(O)C6Cc7ccc(O)c8c7C4(CCN6CC=C)C2O8)CCC3(O)C1C5 (configuration not stated) |  | 37.6 µM
CN1CC[C@@H](c2c(O)cc(O)c3c(=O)cc(-c4ccc(C(F)(F)F)cc4Cl)oc23)[C@@H]1CO | 17600 nM | 33.9 µM
CN(C)CCNC(=O)c1cccc2c(Nc3ccc(S(=O)(=O)N=C(N)N)cc3)c3ccccc3nc12 |  | > 100 µM
COC(=O)C1=C(C(=O)OC)C2=S(SC3=C2CCCC3)S1 (configuration not stated) |  | 87.8 µM
O=C(Nc1ccc(Cl)c(C(F)(F)F)c1)c1ccc(NC2=C(Cl)C(=O)N(Cc3ccccc3)C2=O)cc1 | 7470 nM | > 100 µM
COC(=O)c1ccc(-c2c(C#N)[n+](=O)c3cc(Cl)c(Cl)cc3n2[O-])cc1 | 19900 nM | 58 µM

Each molecule was assayed on UO-31 renal (assay: NCI-60 cell line screen, 48 h).

Structure (SMILES) | GI50 | TGI
Cn1c(Nc2ccc(C(F)(F)F)cc2)nc2cc(Oc3ccnc(-c4ncc(C(F)(F)F)[nH]4)c3)ccc21 | 239 nM | 10.2 µM
COc1ccc(-c2nsc3c2NC(=O)CC3c2cccc(OC)c2)cc1 (configuration not stated) | 3100 nM | > 100 µM
C[C@@]12CCC[C@@](C)(C(=O)O)C1CC[C@]13CC(=O)[C@](CO)(C1)[C@@H](O)CC32 (some centres not stated) | > 100000 nM | > 100 µM
O=[N+]([O-])c1ccc(CI)cc1 | 1790 nM | 3.59 µM
CN(C)C/C=C/C(=O)Nc1cc2c(Nc3ccc(F)c(Cl)c3)ncnc2cc1O[C@H]1CCOC1 | 762 nM and 322 nM | 16.4 µM and > 10 µM
Cn1cnnc1Sc1c([N+](=O)[O-])ncn1C |  | > 100 µM
C=CCC1(CN(C)C)CC/C(=C\c2ccc(Cl)cc2)C1=O (configuration not stated) |  | > 100 µM
COc1cc(/C=C/C(=O)c2cccc(-n3cc(-c4ccc(Cl)cc4)[nH]c3=O)c2)ccc1O | 1260 nM | > 37 µM
CC(=O)N1CCC(=O)/C(=C/c2ccccc2)C1 |  | > 100 µM
C[Si](C)(C)/C(Br)=C\CCN1C(=O)CCC1=O |  | > 100 µM
CC1(Br)Cc2ccccc2C1=O (configuration not stated) |  | 20.2 µM
C[C@]12CCC(=O)C=C1CC[C@@H]1C2CC[C@]2(C)Nc3[nH]ncc3CC12 (some centres not stated) |  | > 100 µM
CCOC(=O)/C=C/c1ccc(C#Cc2ccccc2)cc1 | 38400 nM | > 100 µM
